Source: patent US20250059201A1, “CAMPTOTHECIN COMPOUND AND CONJUGATE THEREOF” (priority 2021, published 2025)
Like-named read-outs stand apart in the source and are kept apart here.

Tests used:
Format in all cases: cell-based
BxPC-3 cells = test: Apoptosis-inducing effect; details: BxPC-3, 120 hours, over the tested concentrations
Procedure: BxPC-3 cells (purchased from: ATCC) were inoculated into 6-well plates, and then treated with Trop2-ADC-14 (0.020, 0.196, and 1.963 nM), DS-1062 (0.020, 0.196, and 1.963 nM), the mAb in Trop2-ADC-14 (i.e., antibody h23-12) (6.728 nM) and Compound 3 (0.1, 1, and 10 nM) for 120 hours. Next, the cells were harvested, and Annexin-V-FITC and PI were added thereto, and the cells were stained at room temperature for 15 minutes in dark, and finally were re-suspended in the added 300 μl of 1× binding buffer. Apoptosis was detected with a flow cytometer (BD AccuriTMC6 Plus flow cytometer), for which 1×10^4 cells were gated for each group. Experimental data was analyzed using software BD CSampler™ Plus C6.

Colo 205 = test: Proliferation-inhibiting effect on tumor cells (SRB or MTT assay); details: Homo sapiens, COLO 205, 144 h
Procedure: (§1) For cells growing by adherence, SRB assay was used to detect effect of antibody-drug conjugates or camptothecins on the proliferation of tumor cells in vitro cultured. A certain number of cells in exponential growth phase were inoculated in 96-well cell culture plates, and when the cells grew by adherence overnight, antibody drug conjugates or camptothecins of different concentrations were added into the cells. 144 hours later, the cells were fixed with trichloroacetic acid, and then stained with SRB (prepared in 1% glacial acetic acid at a concentration of 4 mg/mL). 10 mM Tris solution was added into each well to solubilize the bound SRB. OD values at 510 nm were read on a microplate reader.
(§2) Inhibition (%)=([…] of control well−OD value of dosed well)/OD value of control well×100%
(§3) For cells growing in suspension, MTT assay was used to detect effect of antibody-drug conjugates or camptothecins on the proliferation of tumor cells in vitro cultured. A certain number of cells in exponential growth phase were inoculated in 96-well cell culture plates, and when the cells grew in suspension overnight, antibody-drug conjugates or camptothecins of different concentrations were added into the cells. 144 hours later, MTT was added to each well of the plates, and the incubation was continued for 4 hours at 37° C. in a 5% CO2 saturated humidity incubator. Next, 100 μL of SDS-isobutanol-HCl solution was added into each well of the plates, and OD values at 570 nm and 690 nm were read on a microplate reader.
(§4) Half maximal inhibitory concentration (IC50) was calculated from the inhibition (%) at those different concentrations using the software Graphpad Prism 8.0. The experiment was repeated once and the data was expressed as mean±SD.

MCF-7 = test: as above; details: Homo sapiens, MCF7, 144 h
Procedure: as §1, §2, §3, §4

HT-29 = test: as above; details: Homo sapiens, HT-29, 144 h
Procedure: as §1, §2, §3, §4

NCI-N87 = test: as above; details: Homo sapiens, NCI-N87, 144 h
Procedure: as §1, §2, §3, §4

Calu-3 = test: as above; details: Homo sapiens, Calu-3, 144 h
Procedure: as §1, §2, §3, §4

BT-474 = test: as above; details: Homo sapiens, BT-474, 144 h
Procedure: as §1, §2, §3, §4

MDA-MB-231/TROP2 = test: as above; details: Homo sapiens, MDA-MB-231, 144 h
Procedure: as §1, §2, §3, §4

MDA-MB-468 = test: as above; details: Homo sapiens, MDA-MB-468, 144 h, read-out: IC50 (nM) Mean ± SD
Procedure: as §1, §2, §3, §4

MDA-MB-231 = test: as above; details: Homo sapiens, MDA-MB-231, 144 h
Procedure: as §1, §2, §3, §4

BxPC-3 = test: as above; details: Homo sapiens, BXPC-3, 144 h
Procedure: as §1, §2, §3, §4

BT-20 = test: as above; details: Homo sapiens, BT-20, 144 h
Procedure: as §1, §2, §3, §4

HT1376 = test: as above; details: Homo sapiens, HT-1376, 144 h
Procedure: as §1, §2, §3, §4

[1] = read-out: IC50 (nM) 1st experiment
[2] = read-out: IC50 (nM) 2nd experiment

With `CC[C@@]1(O)C(=O)OCc2c1cc1n(c2=O)Cc2c-1nc1ccc(N)c3c1c2C(F)(F)CC3` [Compound 3] the apoptosis-inducing effect (BxPC-3 cells) was “induced apoptosis of BxPC-3 cells in a concentration-dependent manner”, the IC50 (Colo 205; [1]) was 0.2 nM and the IC50 (Colo 205; [2]) was 0.2 nM. The IC50 (Colo 205; read-out: IC50 (nM) Mean ± SD) was 0.21 ± 0.05 nM, the IC50 (MCF-7; [1]) was 0.2 nM and the IC50 (MCF-7; [2]) was 0.1 nM. For the same compound, the IC50 (MCF-7; read-out: IC50 (nM) Mean ± SD) was 0.11 ± 0.08 nM, the IC50 (HT-29; [1]) was 0.4 nM and the IC50 (HT-29; [2]) was 0.4 nM. It also gave an IC50 (HT-29; read-out: IC50 (nM) Mean ± SD) of 0.4 ± 0.01 nM, an IC50 (NCI-N87; [1]) of 0.4 nM and an IC50 (NCI-N87; [2]) of 0.5 nM. The IC50 (NCI-N87; read-out: IC50 (nM) Mean ± SD) was 0.47 ± 0.07 nM, the IC50 (Calu-3; [1]) was 0.4 nM and the IC50 (Calu-3; [2]) was 0.4 nM. The IC50 (Calu-3; read-out: IC50 (nM) Mean ± SD) was 0.4 ± 0.02 nM, the IC50 (BT-474; [1]) was 2.3 nM and the IC50 (BT-474; [2]) was 0.5 nM. It also gave an IC50 (BT-474; read-out: IC50 (nM) Mean ± SD) of 1.43 ± 1.25 nM, an IC50 (MDA-MB-231/TROP2; [1]) of 0.1 nM and an IC50 (MDA-MB-231/TROP2; [2]) of 0.1 nM. The IC50 (MDA-MB-231/TROP2; read-out: IC50 (nM) Mean ± SD) was 0.06 ± 0.01 nM, the IC50 (MDA-MB-468) was 0.16 ± 0.01 nM and the IC50 (MDA-MB-231; [1]) was 0.8 nM. It also gave an IC50 (MDA-MB-231; [2]) of 0.8 nM, an IC50 (MDA-MB-231; read-out: IC50 (nM) Mean ± SD) of 0.69 ± 0.15 nM and an IC50 (BxPC-3; [1]) of 0.2 nM. For the same compound, the IC50 (BxPC-3; [2]) was 0.2 nM, the IC50 (BxPC-3; read-out: IC50 (nM) Mean ± SD) was 0.17 ± 0.01 nM and the IC50 (BT-20; [1]) was 0.5 nM. For the same compound, the IC50 (BT-20; [2]) was 0.5 nM, the IC50 (BT-20; read-out: IC50 (nM) Mean ± SD) was 0.53 ± 0.01 nM and the IC50 (HT1376; [1]) was 1 nM. The IC50 (HT1376; [2]) was 0.9 nM and the IC50 (HT1376; read-out: IC50 (nM) Mean ± SD) was 0.98 ± 0.08 nM.
